This note sets out measurements from patent US6962930B1, “Compounds, compositions and method suitable for amelioration of withdrawal syndromes and withdrawal-induced brain damage” (Lohocla Research Corporation, priority 1997, dated 2005).

Assay [1] has as its system ethanol withdrawal-induced seizures in C57BL/6 mice. Briefly: Ethanol withdrawal-induced seizures. The format is in vivo. The note with it: single 100 mg/kg i.p. at 0900 hours. From the text:
Male C57BL/6 mice were housed individually. One group of mice were each given a measured amount of liquid diet (BioServ) containing 6.7% ethanol (v/v) and a second, control group of mice each received the same diet with maltodextrin substituted isocalorically for ethanol, as their sole nutrient source for 7 days. A description of such a test can be found in Grant, K. A., et al., “ETHANOL WITHDRAWAL SEIZURES AND THE NMDA RECEPTOR COMPLEX,” Eur. J. Pharmacol., 176 289–296, (1990), the relevant disclosures of which are incorporated herein by reference. Pair-fed mice were given a volume of liquid diet equal to the average volume that the ethanol-fed mice consumed on the previous day. This treatment regimen produces mice that are functionally tolerant to and physically dependent on ethanol. Beginning at 0700 hours on the eighth day of the diet, ethanol-containing diet was replaced with control liquid diet (“withdrawal”).
Withdrawal seizure severity was assessed by measuring the incidence of handling-induced and spontaneous seizures, which were rated on a rating scale of 0 to 4, modified from a rating scale described by Grant, K. A., et al. in the above cited article. The rating scale was as follows: 0, little or no reaction; 1, slight jerkiness upon handling; 2, excitability increasing in magnitude to a clonic-tonic seizure; 3, spontaneous or instantaneous clonic-tonic seizure; 4, death while in a seizure. The mice were rated for seizure severity at 2, 4, 6, 7, 8, 9, 10, 11, 12 and 24 hours after ethanol withdrawal. Groups of ethanol-fed mice were injected intraperitoneally at 0700, 1100 and 1400 hours with saline, 3, 10 or 17 mg/kg (±)HA-966 (FIG. 5A) or 10, 17 or 30 mg/kg 7-Cl kynurenic acid (FIG. 5B).
Male C57BL/6 mice were fed ethanol in a liquid diet and the withdrawal seizure severity was assessed as described in EXAMPLE 5. Groups of ethanol-fed mice received a single injection (i.p.) of either vehicle (4% Tween-80, 0.5% carboxymethylcellulose in 0.9% saline) alone or of 100 mg/kg DCUK-OMe suspended in the vehicle administered at 0900 hours. The results are presented in FIG. 6A as the median withdrawal scores of vehicle-injected (N=14) or DCUK-OMe injected (N=6) mice in which * denotes P<0.05, statistically compared to vehicle-injected mice, in the Mann-Whitney U test. FIG. 6B presents the same data as the total withdrawal score, defined as the area enclosed by the curve connecting median withdrawal scores plotted against time as in FIG. 6A. The mean total withdrawal scores±SEM for the vehicle-injected group and DCUK-OMe-injected groups are plotted in which * denotes P<0.05, statistically compared to vehicle-injected mice, by the Student t-test.

Assay [2] deals with T1, NR1a/NR2A recombinant receptors (Homo sapiens, UniProt Q05586).
T1 construct: expressed in transfected cells; host or cells: Xenopus laevis oocytes, nuclear cDNA injection
Briefly: NMDA-induced currents in oocytes expressing NR1a/NR2A. It is filed as cell-based. The note with it: 100 μM NMDA, 50 μM DCUKA, increasing glycine up to 100 μM. On the procedure:
Oocytes were obtained from Xenopus laevis frogs (Nasco or Xenopus I) kept in aquarium tanks at 19–21° C., on a 12 hr light/dark cycle. Mature females were anesthetized by immersion for approximately 30 min in a 0.12% 3-aminobenzoic acid ethyl ester solution, a small incision was made in the abdominal wall and a piece of ovary was removed and placed in Modified Barth's solution (MBS; in mM) containing 88 NaCl, 1 KCl, 10 HEPES, 0.82 MgSO4, 2.4 NaHCO3, 0.91 CaCl2, 0.33 Ca(NO3)2 (pH 7.5). To facilitate manual dissection of oocytes, a section of ovary was transferred from MBS to a hypertonic buffer containing 108 mM NaCl, 2 mM KCl, 2 mM EDTA, 10 mM HEPES, pH 7.5 and theca and epithelial layers of mature oocytes (stages V and VI) were removed with surgical forceps. The follicular layer was removed by a 10 min immersion in 0.5 mg/ml of collagenase in buffer containing 83 mM NaCl, 2 mM KCl, 1 mM MgCl2 and 5 mM HEPES.
Human NR1a, NR2A and NR2B cDNAs in pCDNA-1Amp were transformed and amplified in XL-1 Blue cells and purified with the MaxPrep Qiagen kit. Oocytes were injected with cDNA into the nucleus in the following concentrations: NR1a/2A cDNAs 0.75 ng/30 nl 1:1 ratio, NR1a/2B cDNAs 3.0 ng/30 nl: 1:1 ratio. Injections were made with micropipettes (10 μm tip diameter) connected to a Drummond micropipettor attached to a micromanipulator. After injection, oocytes were individually placed in wells of 96-well microtiter plates containing incubation medium (MBS supplemented with 10 mg/l streptomycin, 10,000 U/l penicillin G, 50 mg/l gentamicin, 2 mM sodium pyruvate, 0.5 mM theophylline) that had been sterilized by passage through a […]. Oocytes were incubated at 19° C. for 2 to 4 days after injection.
Oocytes were placed in a rectangular chamber (approximately […]) and perfused (2 ml/min) with frog Ringer (in mM) containing 115 NaCl, 2.5 KCl, 1.8 CaCl2, 10 HEPES (pH 7.2). […] Control responses were always measured before and after addition of the DCUKA. […] Data are expressed as the % inhibition of the agonist response obtained in the absence of the drug.

For `COC(=O)c1cc(NC(=O)N(c2ccccc2)c2ccccc2)c2c(Cl)cc(Cl)cc2n1` [DCUK-OMe, (N,N-diphenyl)-4-ureido-5,7-dichloro-2-carboxy-quinoline methyl ester], the ethanol withdrawal severity result in assay [1] was “reduces ethanol withdrawal severity”. In the case of `O=C(O)c1cc(NC(=O)N(c2ccccc2)c2ccccc2)c2c(Cl)cc(Cl)cc2n1` [DCUKA, (N,N-diphenyl)-4-ureido-5,7-dichloro-2-carboxy-quinoline], the “reversal by glycine of inhibition of NMDA-induced currents” value in assay [2] is “could not be overcome by glycine, even at a 100 μM concentration”.
